Source: US10669263B2, “Substituted benzimidazole derivative as a modulator of TNF activity” (UCB Biopharma SRL, priority 2016, dated 2020)
Where “and” joins values, the source holds several entries; their conditions need not be identical. Identical values can stand only once.

Tests used:
[1] = biological target: T1, TNFα (Homo sapiens, UniProt P01375); experiment: Fluorescence polarisation assay: inhibition of binding of fluorescence conjugate to TNFα; conditions: 10 nM TNFα, 10 nM fluorescence conjugate, 60 minutes pre-incubation, then 20 hours at ambient temperature
Procedure: Fluorescence Polarisation Assay
Inhibition of Binding of Fluorescence Conjugate to TNFα
Compounds were tested at 10 concentrations starting from 25 μM in a final assay concentration of 5% DMSO, by pre-incubation with TNFα for 60 minutes at ambient temperature in 20 mM Tris, 150 mM NaCl, 0.05% Tween 20, before addition of the fluorescence conjugate and a further incubation for 20 hours at ambient temperature. The final concentrations of TNFα and the fluorescence conjugate were 10 nM and 10 nM respectively in a total assay volume of 25 μL. Plates were read on a plate reader capable of detecting fluorescence polarisation (e.g. an Analyst HT plate reader; or an Envision plate reader). An IC50 value was calculated using XLfit™ (4 parameter logistic model) in ActivityBase.

[2] = biological target: T1, TNFα; experiment: Reporter gene assay (HEK-293 bioassay): inhibition of TNFα-induced NF-κB activation in HEK-Blue CD40L cells; format: cell-based; conditions: 0.5 ng/mL TNFα, 60 minutes preincubation, 18 h incubation, read-out: IC50 value, inhibition of TNFα-induced NF-κB activation (SEAP reporter)
Source text: The compounds in accordance with the present invention potently neutralise the activity of TNFα in a commercially available HEK-293 derived reporter cell line known as HEK-Blue™ CD40L. This is a stable HEK-293 transfected cell line expressing SEAP (secreted embryonic alkaline phosphatase) under the control of the IFNβ minimal promoter fused to five NF-κB binding sites. Secretion of SEAP by these cells is stimulated in a concentration-dependent manner by TNFα.
Inhibition of TNFα-induced NF-κB Activation
Stimulation of HEK-293 cells by TNFα leads to activation of the NF-κB pathway. The reporter cell line used to determine TNFα activity was purchased from InvivoGen. HEK-Blue™ CD40L is a stable HEK-293 transfected cell line expressing SEAP (secreted embryonic alkaline phosphatase) under the control of the IFNβ minimal promoter fused to five NF-κB binding sites. Secretion of SEAP by these cells is stimulated in a dose-dependent manner by TNFα, with an EC50 of 0.5 ng/mL for human TNFα. […] SEAP activity was determined in the supernatant using a colorimetric substrate, e.g. QUANTI-Blue™ or HEK-Blue™ Detection media (InvivoGen). Percentage inhibitions for compound dilutions were calculated between a DMSO control and maximum inhibition (by excess control compound) and an IC50 value calculated using XLfit™ (4 parameter logistic model) in ActivityBase.

T1 sequence (P01375 77-233 limits assumed): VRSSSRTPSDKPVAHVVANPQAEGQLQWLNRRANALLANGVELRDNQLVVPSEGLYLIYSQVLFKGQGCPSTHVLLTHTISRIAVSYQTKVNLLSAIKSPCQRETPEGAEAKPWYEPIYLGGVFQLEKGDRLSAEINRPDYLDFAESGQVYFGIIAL

## Cc1nc2ccc(-c3cnc(C(C)(C)O)nc3)cc2n1Cc1c(F)cccc1OC(F)F [Example 1, 2-(5-{1-[2-(Difluoromethoxy)-6-fluorobenzyl]-2-methyl-1H-benzimidazol-6-yl}-pyrimidin-2-yl)propan-2-ol]
[1]
  IC50: < 20 nM and 0.1 to 20 nM
[2]
  IC50: < 50 nM and 0.5 to 50 nM
